The text below walks through data of patent publication US8637568B2, “Serotonin reuptake inhibitors” (Theravance, Inc., priority 2010, dated 2014).

Bounds are passed on as bounds.

This experiment has as its target T1, human recombinant SERT (HEK293-hSERT cells) (Homo sapiens, UniProt P31645).
T1 construct: expressed in transfected cells; host or cells: HEK293 (stably transfected), whole cells
Put plainly: hSERT neurotransmitter uptake assay. It is filed as cell-based. The note with it: serotonin reuptake inhibition in HEK293-hSERT cells; for IC50: read-out: SERT pIC50 (converted). As to the method: HEK293 cells stably-transfected with human recombinant SERT (HEK293-hSERT) were grown in Dulbecco's Modified Eagle's Medium supplemented with 10% dialyzed fetal bovine serum, 100 µg/ml penicillin, 100 µg/ml streptomycin, 2 mM L-glutamine, and 250 μg/ml of the aminoglycoside antibiotic G418. Cells were incubated in a 5% CO2, humidified incubator at 37° C.
In pre-incubation studies, test compound was added to cells for 30 minutes at 37° C. prior to the addition of fluorescent substrate. […] For real-time measurements, compounds were either preincubated (as above) or mixed with substrate prior to addition, and kinetic measurements, relative fluorescence units (RFU integrated over 0.5 ms),were made using a cycle time of 1 min.

T1 sequence (P31645 whole entry): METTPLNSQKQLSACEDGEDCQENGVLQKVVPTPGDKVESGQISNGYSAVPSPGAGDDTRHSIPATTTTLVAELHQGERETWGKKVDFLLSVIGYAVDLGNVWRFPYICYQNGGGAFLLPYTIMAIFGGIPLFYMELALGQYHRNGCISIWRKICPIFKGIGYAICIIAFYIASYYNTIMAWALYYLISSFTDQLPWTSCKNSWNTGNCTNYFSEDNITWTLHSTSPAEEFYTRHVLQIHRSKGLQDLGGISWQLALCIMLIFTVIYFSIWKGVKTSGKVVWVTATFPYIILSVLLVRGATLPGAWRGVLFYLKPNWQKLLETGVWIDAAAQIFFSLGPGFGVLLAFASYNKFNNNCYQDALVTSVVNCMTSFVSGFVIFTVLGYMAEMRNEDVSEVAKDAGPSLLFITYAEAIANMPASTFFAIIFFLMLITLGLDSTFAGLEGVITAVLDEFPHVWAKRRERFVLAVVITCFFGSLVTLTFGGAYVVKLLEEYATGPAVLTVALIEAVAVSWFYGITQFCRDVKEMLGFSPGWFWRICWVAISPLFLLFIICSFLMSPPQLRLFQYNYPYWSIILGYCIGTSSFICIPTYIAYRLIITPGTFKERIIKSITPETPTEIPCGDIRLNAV

Consider `CS(=O)(=O)NC[C@@H](Oc1ccc(C(F)(F)F)cc1)[C@@H]1CCNC1` (stereo in doubt) [Example 3-2, N-[(R)-2-(S)-Pyrrolidin-3-yl-2-(4-trifluoromethylphenoxy)ethyl]-methanesulfonamide], for which the IC50 is not above 100 nM.

Turning to `O=S(=O)(NC[C@@H](Oc1ccc(C(F)(F)F)cc1)[C@@H]1CCNC1)c1ccccc1` (stereo in doubt) [Example 3-18, N-[(R)-2-(S)-Pyrrolidin-3-yl-2-(4-trifluoromethylphenoxy)ethyl]benzenesulfonamide], the IC50 was not above 10 nM.

Consider `CNS(=O)(=O)N(C)C[C@@H](Oc1ccc(C(F)(F)F)cc1)[C@H]1CCNC1` [Example 1], for which the IC50 is not above 10 nM.

Turning to `O=S(=O)(NC[C@@H](Oc1ccc(C(F)(F)F)cc1)[C@H]1CCNC1)c1ccc(-c2cnco2)cc1` [Example 2, 4-Oxazol-5-yl-N—[(S)-2-(S)-pyrrolidin-3-yl-2-(4-trifluoromethylphenoxy)ethyl]benzenesulfonamide], the IC50 is not above 10 nM.

As for `CN(C[C@@H](Oc1ccc(C(F)(F)F)cc1)[C@H]1CCNC1)S(C)(=O)=O` [Example 3-3, N-Methyl-N-[(S)-2-(S)-pyrrolidin-3-yl-2-(4-trifluoromethylphenoxy)ethyl]-methanesulfonamide], the IC50 is not above 10 nM.

On to `CCS(=O)(=O)NC[C@@H](Oc1ccc(C(F)(F)F)cc1)[C@H]1CCNC1` [Example 3-5, Ethanesulfonic acid [(S)-2-(S)-pyrrolidin-3-yl-2-(4-trifluoromethylphenoxy)-ethyl]amide], for which the IC50 was not above 10 nM.

For `CC(C)S(=O)(=O)NC[C@@H](Oc1ccc(C(F)(F)F)cc1)[C@H]1CCNC1` [Example 3-7, Propane-2-sulfonic acid [(S)-2-(S)-pyrrolidin-3-yl-2-(4-trifluoromethylphenoxy)ethyl]amide], the IC50 is not above 100 nM.

Regarding `O=S(=O)(NC[C@@H](Oc1ccc(C(F)(F)F)cc1)[C@H]1CCNC1)C1CC1` [Example 3-8, Cyclopropanesulfonic acid [(S)-2-(S)-pyrrolidin-3-yl-2-(4-trifluoromethylphenoxy)ethyl]amide], the IC50 is not above 10 nM.

`NC(=O)NS(=O)(=O)NC[C@@H](Oc1ccc(C(F)(F)F)cc1)[C@H]1CCNC1` [Example 3-10, N[(S)-2-(S)-pyrrolidin-3-yl-2-(4-trifluoromethylphenoxy)ethyl]sulfonylurea]: the “SERT pIC50” value is reported as “≧7.0”.

In the case of `CN(C)S(=O)(=O)NC[C@@H](Oc1ccc(C(F)(F)F)cc1)[C@H]1CCNC1` [Example 3-11], the IC50 was not above 10 nM.

For `CS(=O)(=O)CS(=O)(=O)NC[C@@H](Oc1ccc(C(F)(F)F)cc1)[C@H]1CCNC1` [Example 3-12, C-Methanesulfonyl-N-[(S)-2-(S)-pyrrolidin-3-yl-2-(4-trifluoromethylphenoxy)ethyl]methanesulfonamide], the IC50 was not above 10 nM.

On to `O=S(=O)(NC[C@@H](Oc1ccc(C(F)(F)F)cc1)[C@H]1CCNC1)c1cnc[nH]1` [Example 3-13, 3H-Imidazole-4-sulfonic acid [(S)-2-(S)-pyrrolidin-3-yl-2-(4-trifluoromethylphenoxy)ethyl]amide], for which the IC50 is not above 100 nM.

`Cn1cncc1S(=O)(=O)NC[C@@H](Oc1ccc(C(F)(F)F)cc1)[C@H]1CCNC1` [Example 3-14, 3-Methyl-3H-imidazole-4-sulfonic acid [(S)-2-(S)-pyrrolidin-3-yl-2-(4-trifluoromethylphenoxy)ethyl]amide]: the IC50 is not above 100 nM.

With `O=S(=O)(NC[C@@H](Oc1ccc(C(F)(F)F)cc1)[C@H]1CCNC1)c1ncn[nH]1` [Example 3-15], the IC50 was not above 100 nM.

Consider `O=S(=O)(NC[C@@H](Oc1ccc(C(F)(F)F)cc1)[C@H]1CCNC1)c1cccc2nonc12` [Example 3-16, Benzo[1,2,5]oxadiazole-4-sulfonic acid [(S)-2-(S)-pyrrolidin-3-yl-2-(4-trifluoromethylphenoxy)ethyl]amide], for which the IC50 is not above 10 nM.

As to `O=S(=O)(NC[C@@H](Oc1ccc(C(F)(F)F)cc1)[C@H]1CCNC1)N1CCOCC1` [Example 3-17, Morpholine-4-sulfonic acid [(S)-2-(S)-pyrrolidin-3-yl-2-(4-trifluoromethylphenoxy)ethyl]amide], the IC50 was not above 10 nM.

Consider `O=S(=O)(NC[C@@H](Oc1ccc(C(F)(F)F)cc1)[C@H]1CCNC1)c1ccccc1` [Example 3-19, N-[(S)-2-(S)-Pyrrolidin-3-yl-2-(4-trifluoromethylphenoxy)ethyl]benzenesulfonamide], for which the IC50 is not above 10 nM.

On to `N#Cc1ccc(S(=O)(=O)NC[C@@H](Oc2ccc(C(F)(F)F)cc2)[C@H]2CCNC2)cc1` [Example 3-20, 4-Cyano-N-[(S)-2-(S)-pyrrolidin-3-yl-2-(4-trifluoromethylphenoxy)ethyl]benzenesulfonamide], for which the IC50 was not above 10 nM.

On to `O=[N+]([O-])c1ccc(S(=O)(=O)NC[C@@H](Oc2ccc(C(F)(F)F)cc2)[C@H]2CCNC2)cc1` [Example 3-22, 4-Nitro-N-[(S)-2-(S)-pyrrolidin-3-yl-2-(4-trifluoromethylphenoxy)ethyl]benzenesulfonamide], for which the IC50 is not above 10 nM.

`COc1ccc(S(=O)(=O)NCC(Oc2ccc(C(F)(F)F)cc2)C2CCNC2)cc1` [Example 3-23, 4-Methoxy-N-[(S)-2-(S)-pyrrolidin-3-yl-2-(4-trifluoromethylphenoxy)ethyl]bensenesulfonamide]: the IC50 was not above 10 nM.

In the case of `COCCc1ccc(S(=O)(=O)NC[C@@H](Oc2ccc(C(F)(F)F)cc2)[C@H]2CCNC2)cc1` [Example 3-24, 4-(2-Methoxyethyl)-N-[(S)-2-(S)-pyrrolidin-3-yl-2-(4-trifluoromethylphenoxy)ethyl]benzenesulfonamide], the IC50 was not above 10 nM.

In the case of `CNC(=O)c1cccc(S(=O)(=O)NCC(Oc2ccc(C(F)(F)F)cc2)C2CCNC2)c1` [Example 3-25, N-Methyl-3-[(S)-2-(S)--pyrrolidin-3-yl-2-(4-trifluoromethylphenoxy)ethylsulfamoyl]benamide], the IC50 was not above 10 nM.

Take `CC(=O)Nc1cccc(S(=O)(=O)NC[C@@H](Oc2ccc(C(F)(F)F)cc2)[C@H]2CCNC2)c1` [Example 3-26, N-{3-[(S)-2-(S)-Pyrrolidin-3-yl-2-(4-trifluoromethylphenoxy)ethylsulfamoyl]phenyl}acetamide]: the IC50 is not above 10 nM.

With `CS(=O)(=O)c1ccc(S(=O)(=O)NC[C@@H](Oc2ccc(C(F)(F)F)cc2)[C@H]2CCNC2)cc1` [Example 3-27, 4-Methanesulfonyl-N-[(S)-2-(S)-pyrrolidin-3-yl-2-(4-trifluoromethylphenoxy)ethyl]benzenesulfonamide], the IC50 was not above 10 nM.

`CS(=O)(=O)c1cccc(S(=O)(=O)NC[C@@H](Oc2ccc(C(F)(F)F)cc2)[C@H]2CCNC2)c1` [Example 3-28, 3-Methanesulfonyl-N-[(S)-2-(S)-pyrrolidin-3-yl-2-(4-trifluoromethylphenoxy)ethyl]benzenesulfonamide]: the IC50 is not above 100 nM.

As to `CS(=O)(=O)c1ccccc1S(=O)(=O)NC[C@@H](Oc1ccc(C(F)(F)F)cc1)[C@H]1CCNC1` [Example 3-29, 2-Methanesulfonyl-N-[(S)-2-(S)-pyrrolidin-3-yl-2-(4-trifluoromethylphenoxy)ethyl]benzenesulfonamide], the IC50 was not above 10 nM.

With `NS(=O)(=O)c1ccc(S(=O)(=O)NCC(Oc2ccc(C(F)(F)F)cc2)C2CCNC2)cc1` [Example 3-30, Benzene-1,4-disulfonic acid lamide 4-{[(S)-2-(S)-pyrrolidin-3-yl-2-(4-trifluoromethylphenoxy)ethyl]amide}], the IC50 was not above 10 nM.

`CNS(=O)(=O)c1ccc(S(=O)(=O)NCC(Oc2ccc(C(F)(F)F)cc2)C2CCNC2)cc1` [Example 3-31, Benzene-1,4-disulfonic acid 1-methylamide 4-{[(S)-2-(S)-pyrrolidin-3-yl-2-(4-trifluoromethylphenoxy)ethyl]amide}]: the IC50 is not above 10 nM.

Regarding `O=S(=O)(NC[C@@H](Oc1ccc(C(F)(F)F)cc1)[C@H]1CCNC1)c1ccc(-n2cccn2)cc1` [Example 3-32, 4-Pyrazol-1-yl-N-[(S)-2-(S)-pyrrolidin-3-yl-2-(4-trifluoromethylphenoxy)ethyl]benzenesulfonamide], the IC50 was not above 10 nM.

`Cc1cc(C)n(-c2ccc(S(=O)(=O)NCC(Oc3ccc(C(F)(F)F)cc3)C3CCNC3)cc2)n1` [Example 3-33, 4-(3,5-Dimethyl-pyrazol-1-yl)-N-(S)-2-(S)-pyrrolidin-3-yl-2-(4-trifluoromethylphenoxy)ethyl]benzenesulfonamide]: the IC50 was not above 10 nM.

For `O=S(=O)(NC[C@@H](Oc1ccc(C(F)(F)F)cc1)[C@H]1CCNC1)c1ccc(-c2ncccn2)cc1` [Example 3-34, 4-Pyrimidin-2-yl-N-[(S)-2-(S)-pyrrolidin-3-yl-2-(4-trifluoromethylphenoxy)ethyl]benzenesulfonamide], the IC50 is not above 10 nM.

Take `O=S(=O)(NCC(Oc1ccc(C(F)(F)F)cc1)C1CCNC1)c1ccc(-c2nnn[nH]2)cc1` [Example 3-35, N[(S)-2-(S)-Pyrrolidin-3-yl-2-(4-trifluoromethylphenoxy)ethyl]-4-(1H-tetrazol-5-yl)-benzenesulfonamide]: the IC50 is not above 100 nM.

For `NS(=O)(=O)C[C@@H](Oc1ccc(C(F)(F)F)cc1)[C@H]1CCNC1` [Example 4, (S)-2-(S)-Pyrrolidin-3-yl-2-(4-trifluoromethylphenoxy)ethanesulfonic Acid Amide], the IC50 is not above 10 nM.

Consider `O=S(=O)(C[C@@H](Oc1ccc(C(F)(F)F)cc1)[C@H]1CCNC1)NCc1ccccc1` [Example 5, (S)-2-(S)-Pyrrolidin-3-yl-2-(4-trifluoromethylphenoxy)ethanesulfonic Acid Benzylamide], for which the IC50 was not above 10 nM.
